Laboratory results reported in patent publication US20220008499A1, “COMPOUNDS, COMPOSITIONS AND METHODS FOR TREATING SEPSIS” (FERRING B.V., priority 2018, published 2022).
Bridge positions count the residues as written; N and C are the ends. Square brackets hold non-standard residues; d marks the D form. Peptide text beside a SMILES is read from it. Orn(iPr) = CC(C)NCCC[C@H](N)C(=O)O; Aad = N[C@@H](CCCC(=O)O)C(=O)O

Legend:
[1] = tested on: patients with septic shock; conditions: cited from earlier work
[2] = tested on: patients with vasopressor-dependent sepsis and septic shock; experiment: randomized, placebo-controlled, adaptive clinical study of selepressin plus standard care; type: in vivo, human; design: Estimated 30-day mortality (up to day 30) / Estimated 30-day mortality, treatment difference vs placebo: concentration or dose not given beside the values; conditions: for improvement in estimated VFDs compared with placebo (more): up to day 30; for Est P&VFDs: all patients / Estimated Pressor and Ventilator Free days (P&VFDs): all patients: all doses pooled; for Est % mortality, treatment difference vs placebo / Est P&VFDs: all patients, treatment difference vs placebo / Est P&VFDs: survivors, treatment difference vs placebo / Estimated P&VFDs: all patients, treatment difference vs placebo / Estimated 30-day mortality, treatment difference vs placebo / Estimated P&VFDs: survivors only, treatment difference vs placebo: selepressin minus placebo; for Estimated Pressor and Ventilator Free days (P&VFDs): all patients: up to Day 30
Excerpt: The study described in the following examples was a randomized, placebo-controlled, seamless two-part, adaptive clinical study. […] The term “vasopressor-dependent sepsis” includes all patients with sepsis requiring vasopressor therapy. Septic shock includes patients with sepsis who require vasopressor therapy and who have a serum lactate concentration of ≥2 mmol/L.
The inclusion and exclusion criteria for the trial are set out below.
Inclusion Criteria • 18 years of age or older • Proven or suspected infection Septic shock defined as hypotension (systolic blood pressure less than 90 mm Hg or • Mean arterial pressure less than 65 mm Hg requiring vasopressor treatment (i.e., any dose of norepinephrine/noradrenaline base greater than […]) despite adequate fluid resuscitation (at least 1 litre for hypotension) • Informed consent obtained in accordance with local regulations
Exclusion Criteria • Unable to initiate treatment with selepressin or placebo within 12 h of onset of vasopressor treatment for septic shock • Primary cause of hypotension not due to sepsis • Previous severe sepsis with intensive care admission within this hospital stay • Known/suspected acute mesenteric ischemia • Suspicion of concomitant acute coronary syndrome based on clinical symptoms and/or electrocardiogram findings during this episode of septic shock • Chronic mechanical ventilation for any reason or severe chronic obstructive pulmonary disease (COPD) requiring either continuous daily oxygen use during the preceding 30 days or mechanical ventilation (for acute exacerbation of COPD) during the preceding 30 days • Received bone marrow transplant during the preceding 6 months or chemotherapy during the preceding 30 days for lymphoma or leukemia • Known to be pregnant Decision to limit full care taken before obtaining informed consent • Use of vasopressin in the past 12 hours before start of selepressin or placebo or use of terlipressin within 7 days of start of selepressin or placebo • Prior enrollment in the study • Prior use of an investigational medicinal product within the last month or planned or concurrent participation in a clinical trial for any investigational drug or investigational device
Additional Criteria that Must be Met at the Time of the Start of the Infusion of Selepressin or Placebo • Received a minimum of 30 ml/kg fluid in total from the onset of hypotension (not required if there is evidence of adequate fluid repletion or overload) • Received a continuous infusion of norepinephrine/noradrenaline base greater than […] for at least 1 h and is still receiving at least […] norepinephrine/noradrenaline base • Less than 12 h since onset of vasopressor treatment for septic shock
The targeted study population is a typical sample of patients presenting with vasopressor-dependent sepsis, defined by failing to respond to intravenous fluid replacement and requiring vasopressors for at least 1 hour, in whom treatment with selepressin or placebo could be initiated within 12 hours of the initiation of vasopressors.
The study drug was the continuous intravenous infusion of either the experimental agent or a matching placebo. In all instances, subjects received study infusion and standard care. The possible treatment arms were: Placebo; selepressin starting infusion rate 1.7 ng/kg/min to maximum 2.5 ng/kg/min; selepressin starting 2.5 ng/kg/min to maximum 3.75 ng/kg/min; selepressin starting 3.5 ng/kg/min to maximum 5.25 ng/kg/min; and selepressin starting 5.0 ng/kg/min to 7.5 ng/kg/min. […] This latter approach sought to wean all other vasoactive agents as soon as possible, and in a specified order, beginning with any open-label vasopressor other than norepinephrine, followed by norepinephrine, and finally the blinded study infusion. All patients received the study infusion until recovery from the need of vasopressor treatment or for 30 days, whichever came first. […]

[3] = tested on: other receptors, ion channels, or transporters; conditions: cited from earlier work
[4] = target: human vasopressin V1a receptor (Homo sapiens, UniProt P37288); conditions: relative to the V1b, V2, and oxytocin receptors; cited from earlier work
[5] = baseline serum lactate <2 mmol/L, n = 184
[6] = baseline serum lactate <2 mmol/L
[7] = baseline serum lactate ≥2 mmol/L, n = 340
[8] = baseline serum lactate ≥2 mmol/L

human vasopressin V1a receptor, sequence (P37288 whole entry): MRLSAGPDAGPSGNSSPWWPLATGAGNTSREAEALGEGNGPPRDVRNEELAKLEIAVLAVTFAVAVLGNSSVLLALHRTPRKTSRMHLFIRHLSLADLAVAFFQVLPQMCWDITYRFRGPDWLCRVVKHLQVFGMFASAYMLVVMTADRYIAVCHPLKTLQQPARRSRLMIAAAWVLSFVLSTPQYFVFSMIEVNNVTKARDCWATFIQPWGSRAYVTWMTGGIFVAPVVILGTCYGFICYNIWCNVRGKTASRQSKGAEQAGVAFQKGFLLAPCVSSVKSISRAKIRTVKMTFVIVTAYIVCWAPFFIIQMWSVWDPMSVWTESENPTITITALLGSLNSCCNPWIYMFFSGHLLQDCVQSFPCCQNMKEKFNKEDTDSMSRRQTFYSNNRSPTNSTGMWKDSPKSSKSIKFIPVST

Compound: NC(=O)CC[C@@H]1NC(=O)[C@H](Cc2ccccc2)NC(=O)[C@H](Cc2ccc(O)cc2)NC(=O)[C@@H](N)CSSC[C@@H](C(=O)N2CCC[C@H]2C(=O)N[C@@H](CCCN=C(N)N)C(=O)NCC(N)=O)NC(=O)[C@H](CC(N)=O)NC1=O [vasopressin]
- overall mortality compared with norepinephrine ([1]; all patients): not different
- mortality compared with norepinephrine ([1]; patients requiring 5-14 ug/min of norepinephrine at enrollment): decreased mortality

Compound: CC[C@H](C)[C@@H]1NC(=O)[C@H](Cc2ccccc2)NC(=O)[C@@H](N)CSSC[C@@H](C(=O)N2CCC[C@H]2C(=O)N[C@@H](CCCNC(C)C)C(=O)NCC(N)=O)NC(=O)[C@H](CC(N)=O)NC(=O)[C@H](CCCC(N)=O)NC1=O [Selepressin, selepressin] (H-CFI[Aad](NH2)NCP[Orn(iPr)]G-NH2; disulfide 1-6)
- mortality and patient outcomes (pressor and mechanical ventilator free days) ([2]; PaO2/FiO2 greater than about 200 prior to treatment): improved mortality and improved patient outcomes
- mortality and patient outcomes (P&VFDs) ([2]; administered within six hours from when the patient requires vasopressor therapy): improved mortality and improved patient outcomes
- improvement in estimated VFDs compared with placebo (more) ([2]; baseline PaO2/FiO2 200-300 mmHg, FIG. 1): 2.1
- outcomes (VFDs) compared with placebo ([2]; baseline PaO2/FiO2 <100 mmHg, FIG. 1): slightly worse
- improvement in estimated VFDs compared with placebo (more) ([2]; baseline PaO2/FiO2 ≥300 mmHg, FIG. 1): 4.8
- Est % mortality [2, 5]: 21.39%
- Est P&VFDs: all patients [2, 5]: 17.53
- Est % mortality, treatment difference vs placebo [2, 6]: −6.32%
- Est P&VFDs: all patients, treatment difference vs placebo [2, 6]: 2.34
- Est P&VFDs: survivors [2, 6]: 22.30
- Est P&VFDs: survivors, treatment difference vs placebo [2, 6]: 1.29
- Est % mortality [2, 7]: 40.04%
- Est P&VFDs: all patients [2, 7]: 13.87
- Est % mortality, treatment difference vs placebo [2, 8]: 3.96%
- Est P&VFDs: all patients, treatment difference vs placebo [2, 8]: −0.67
- Est P&VFDs: survivors [2, 8]: 23.14
- Est P&VFDs: survivors, treatment difference vs placebo [2, 8]: 0.38
- improvement in mortality compared with placebo (less) ([2]; serum lactate <2 mmol/L at baseline): 6.32%
- mortality and patient outcomes (P&VFDs) ([2]; serum lactate less than about 2 mmol/L prior to treatment): improved mortality and improved patient outcomes
- Estimated Pressor and Ventilator Free days (P&VFDs): all patients ([2]; treatment <6 hours from when patient required vasopressor, n = 147): 14.56 days
- Estimated P&VFDs: all patients, treatment difference vs placebo ([2]; treatment <6 hours from when patient required vasopressor): 2.08 days
- Estimated 30-day mortality (up to day 30) ([2]; treatment <6 hours, n = 147): 35.73%
- Estimated 30-day mortality, treatment difference vs placebo ([2]; treatment <6 hours): −6.57%
- Estimated Pressor and Ventilated Free Days (P&VFDs): survivors only ([2]; treatment <6 hours): 22.66 days
- Estimated P&VFDs: survivors only, treatment difference vs placebo ([2]; treatment <6 hours): 1.02 days
- improvement in mortality compared with placebo (less) ([2]; treatment between zero and up to six hours from when patient required vasopressor): 6.57%
- Estimated 30-day mortality (up to day 30) ([2]; treatment ≥6 hours, n = 415): 33.79%
- Estimated Pressor and Ventilator Free days (P&VFDs): all patients ([2]; treatment ≥6 hours, n = 415): 15.59 days
- Estimated 30-day mortality, treatment difference vs placebo ([2]; treatment ≥6 hours): 2.91%
- Estimated P&VFDs: all patients, treatment difference vs placebo ([2]; treatment ≥6 hours): -0.05 days
- Estimated Pressor and Ventilated Free Days (P&VFDs): survivors only ([2]; treatment ≥6 hours): 23.55 days
- Estimated P&VFDs: survivors only, treatment difference vs placebo ([2]; treatment ≥6 hours): 0.92 days
- affinity for other receptors, ion channels, or transporters [3]: no known affinity
- affinity and selectivity for V1a receptor [4]: high affinity and selectivity
